Entries after “also recorded” stand apart in the source; their conditions may differ. Like-named read-outs stand apart in the source and are kept apart here.
Columns and labels:
[1] = system: LHI-RC superassembly in Rhodobacter capsulatus membranes; settings: for Level (S/P solubilization rank and detergent strength): detergent at 10x CMC, 30 minutes at 32° C.; for extraction of LHI-RC superassembly from R. capsulatus membranes: solubilized protein, optical spectroscopy
From the text: These complexes, normally embedded in the bacterial membrane, are highly pigmented and several outcomes from an assay are possible, including no degradation, partial degradation or complete degradation upon solubilization, or no solubilization. Thus, graded comparative evaluations could be obtained for a set of candidates such as the amphiphiles described herein.
In the engineered strain of R. capsulatus employed, the photosynthetic unit was comprised of a very labile LHI complex and a more resilient RC complex. An ideal amphiphile for this system will extract the intact LHI-RC superassembly from a bacterial membrane preparation and maintain the natural interactions among the components. Amphiphiles with a more disruptive effect will dissociate and denature LHI, leaving only intact RC, and even harsher amphiphiles will cause RC degradation. Each of these various outcomes can be assessed unambiguously via optical spectroscopy (FIG. 2 inset).
Measurements. The starting material for the screening protocols and stability measurements included specialized photosynthetic membranes from an engineered strain of Rhodobacter (R.) capsulatus, U43[pUHTM86Bgl]
To begin the solubilization and purification process, frozen aliquots of R. capsulatus membranes were thawed, homogenized, and equilibrated to 32° C. for 30 minutes. […] For subsequent experiments, the amphiphiles were evaluated at 10-fold CMC during the solubilization step.
The membrane samples were allowed to incubate with the amphiphile for 30 minutes at 32° C. The solubilized material was then separated from the membrane debris in an ultracentrifuge at 315,000×g at 4° C. for 30 minutes. […] After a UV-Vis-nearIR absorption spectrum was recorded, the resuspended pellet was discarded. […] The tubes were then incubated and inverted for 1 hour at 4° C.
Once binding was complete, samples were loaded onto resin-retaining spin columns (e.g., emptied His Spin Trap™ columns; GE Healthcare). The columns were then inserted into a 2 mL microcentrifuge tube to retain the filtered solution during centrifugation. […] Finally, protein was eluted into a fresh microcentrifuge tube with three 0.2 mL elution buffer aliquots (this buffer was identical to binding buffer with the addition of 1 M imidazole).
The R. capsulatus LHI-RC complexes extracted and purified by this procedure contain large numbers of cofactors that have absorptions at distinct wavelengths, and each component of the LHI-RC superassembly has a different inherent stability outside the lipid bilayer. The solubilization protocol outlined above therefore provides a multifaceted assessment of the efficacy of conventional detergents and novel amphiphiles. UV-Vis absorption spectroscopy data obtained at various stages of the protocol allow one to determine which protein components have degraded at these stages. […] The disruption potential was measured as the yield of superassembly extracted during solubilization (or, alternatively and more precisely, as the absence of superassembly in the pellet from the spin following solubilization).
The stabilizing propensity was determined from the spectra of the purified protein. An amphiphile was judged to be mild and stabilizing if it allowed the purification of fully intact LHI-RC superassembly (dominant absorption band at 875 nm). […] An amphiphile was judged to be of intermediate strength if it allowed for the purification of fully intact RC with damaged or missing LHI (dominant absorption at 800 nm with a shoulder at 875 nm; damaged LHI still bound to RC absorbs at 760 nm).
First, solubilization (illustrated in “STEP 1” of FIG. 12) denotes the ability of a surfactant to penetrate, integrate and disrupt a lipid bilayer.

[2] = Solubility in water / aqueous buffer; type: physicochemical; settings: for solubility in water: without cosolvents/additives
[3] = cited from earlier work; for Buffer Range: pH range
[4] = Critical micelle concentration (CMC) by dye solubilization (Orange OT or DPH); type: physicochemical; settings: for critical micelle concentration (CMC): aqueous solubilization of Orange OT; for CMC / CMC (%): determined by DPH (diphenylhexatriene) or Orange OT
From the text: Aqueous solubilization of Orange OT was used to determine critical micelle concentrations (CMC). […] Facile self-association of these amphiphiles under these conditions may be hindered by the hydrophilicity and/or steric bulk of the triglucoside and dimaltoside headgroups.
The Critical Micelle Concentrations (CMCs) of compounds of the invention can be determined by standard techniques known to those of skill in the art. For example, CMCs of the carbohydrate-based amphiphiles described herein can be determined by monitoring uptake of a dye (e.g., Orange OT or 1,6-diphenylhexatriene) with increasing detergent concentration, monitored by UV-visible or fluorescence spectroscopy.

bacteriorhodopsin (bR) = target: T1, bacteriorhodopsin (bR) (Halobacterium salinarum, UniProt P02945); settings: cited from earlier work
T1 sequence (P02945 14-262): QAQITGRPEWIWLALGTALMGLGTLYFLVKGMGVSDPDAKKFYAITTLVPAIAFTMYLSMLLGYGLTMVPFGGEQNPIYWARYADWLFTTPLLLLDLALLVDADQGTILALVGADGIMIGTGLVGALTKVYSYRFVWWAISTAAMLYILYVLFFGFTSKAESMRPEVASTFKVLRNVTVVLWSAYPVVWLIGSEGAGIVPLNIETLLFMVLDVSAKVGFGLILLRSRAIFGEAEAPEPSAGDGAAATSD

bovine rhodopsin = bovine rhodopsin (Bos taurus, UniProt P02699); settings: cited from earlier work
LHI-RC superassembly = system: T2, LHI-RC superassembly; assay: Stability over time of solubilized, purified LHI-RC superassembly (A875/A680 ratio); set-up: species or system Rhodobacter capsulatus; settings: room temperature, 875 nm/680 nm absorption ratio over two to three weeks
T2 construct: Starting with protein complexes in their native lipid bilayer; made in house; host or cells: Rhodobacter capsulatus U43[pUHTM86Bgl], intracytoplasmic membranes (strain lacks LHII)
Experimental: FIG. 3. To monitor the ability of micelles of DDM, TPA-2, and MPA-2(C12) to stabilize membrane protein complexes, spectra of the protein purified by each detergent were recorded as a function of time. The initial spectrum (t=0) was acquired directly after elution of the protein from affinity chromatography. The integrity of the LHI-RC superassembly solubilized by these relatively mild detergents was monitored quantitatively from a scatter-corrected absorbance ratio (A875/A680). The ratio of a sample of completely folded and functional supperassembly is >14.5, and this ratio declines dramatically as the multi-subunit complex disassembles and denatures.
Stability was monitored by following the 875 nm/680 nm absorption ratio over a two to three weeks (absorption at 680 nm arises from oxidation of bacteriochlorophyll that has dissociated from LHI protein).
Similar criteria and protocols were used to judge the ability of amphiphiles to maintain solubilized and purified superassembly for extended periods. In this case, UV Vis-nearIR spectra were recorded at regular intervals. The degradation of the material could be monitored with the A875/A680 absorbance ratio, which decreased with time and sample integrity as the dominant 875 nm absorption of intact LHI disappeared and a 680 nm band appeared, indicating the presence of unbound, oxidized cofactors.

In the case of `CCCCCCCCCCCCC(=O)NCCO[C@@H]1O[C@H](CO)[C@@H](O)[C@H](O)[C@H]1O` [MPA1], the “Level (S/P solubilization rank and detergent strength)” value [1] is reported as “insoluble”, the “solubility in aqueous buffer” value [2] is reported as “not soluble in aqueous buffer” and the solubility in water [2] is reported as “not soluble in water without other additives”.

For `O=S(=O)(O)CCNC(CO)(CO)CO` [TES, 2-{[tris(hydroxymethyl)methyl]amino}ethanesulfonic acid], the “Buffer Range” value [3] is listed as 6.8-8.2.

For `CCCCC(CCCC)(CC(=O)NCCC[N+](C)(C)[O-])c1ccccc1` [TPA0, reference compound], the “critical micelle concentration (CMC)” value [4] was 5.5 mM, the “CMC” value [4] was 4.4 mM and the “CMC (%)” value [4] was 0.16%. The “extraction of LHI-RC superassembly from R. capsulatus membranes” value (“extraction of LHI-RC superassembly” below) [1] was “too harsh to be useful for the preparation of intact superassembly”, the “solubilization of bacteriorhodopsin (bR)” value (bacteriorhodopsin (bR)) was “effectively solubilized” and the “stability of resulting protein solution (bR)” value (bacteriorhodopsin (bR)) was “stable for several weeks”. The “solubilization of bovine rhodopsin” value (bovine rhodopsin) was “effectively solubilized” and the “stability of resulting protein solution (bovine rhodopsin)” value (bovine rhodopsin) was “stable for several weeks”.

In the case of `CCCCCCCCCCCCO[C@@H]1O[C@H](CO)[C@@H](O[C@H]2O[C@H](CO)[C@@H](O)[C@H](O)[C@H]2O)[C@H](O)[C@H]1O` [DDM, dodecyl-β-D-maltopyranoside, reference compound], the “extraction of LHI-RC superassembly” value [1] is reported as “comparable to TPA-2 and TPA-2-S” and the “stability of solubilized LHI-RC superassembly” value (LHI-RC superassembly) is reported as “begins to degrade immediately”.

In the case of `CCCCC(CCCC)(CC(=O)NCCOC1OC(CO)C(O)C(O)C1O)c1ccccc1` (stereo not drawn) [TPA1], the “Level (S/P solubilization rank and detergent strength)” value [1] is reported as “insoluble” and the solubility in water [2] is reported as “not water-soluble without other cosolvents”.

In the case of `CCCCC(CCCC)(CC(=O)NC(CO[C@H]1OC(CO)[C@H](O)C(O)C1O)CO[C@H]1OC(CO)[C@H](O)C(O)C1O)C1CCCCC1` (stereo partly drawn) [TPA21], the “critical micelle concentration (CMC)” value [4] is reported as 1.8 mM, the “CMC” value [4] is reported as 1.8 mM and the “CMC (%)” value [4] is reported as 0.12%. The “extraction of LHI-RC superassembly” value ([1]; listed as TPA-2-S) was “as good as or better than TPA-2 at extracting membrane proteins; also recorded: at least as effective as TPA-2, if not superior; also recorded: equal to or superior to TPA-2 at extracting membrane proteins” and the “stability of solubilized LHI-RC superassembly” value (LHI-RC superassembly) was “more stabilizing than those of TPA-2”.

With `CCCCCCCCCCCCC(=O)NC(CO[C@@H]1O[C@H](CO)[C@@H](O[C@H]2O[C@H](CO)[C@@H](O)[C@H](O)[C@H]2O)[C@H](O)[C@H]1O)CO[C@@H]1O[C@H](CO)[C@@H](O[C@H]2O[C@H](CO)[C@@H](O)[C@H](O)[C@H]2O)[C@H](O)[C@H]1O` [MPA5] the “critical micelle concentration (CMC)” value [4] was 1.7 mM, the “CMC” value [4] was 1.7 mM and the “CMC (%)” value [4] was 0.16%. For the same compound, the “extraction of LHI-RC superassembly” value [1] was “did not extract any protein”.

For `O=S(=O)(O)CCN1CCN(CCS(=O)(=O)O)CC1` [PIPES, piperazine-N,N′-bis(2-ethanesulfonic acid)], the “pKa at 25° C.” value [3] is listed as 6.76 and the “Buffer Range” value [3] is listed as 6.1-7.5.

For `O=S(=O)(O)CCCNC(CO)(CO)CO` [TAPS, 3-{[tris(hydroxymethyl)methyl]amino}propanesulfonic acid], the “pKa at 25° C.” value [3] is given as 8.43 and the “Buffer Range” value [3] is given as 7.7-9.1.

In the case of `O=S(=O)(O)CCN1CCN(CCO)CC1` [HEPES, 4-2-hydroxyethyl-1-piperazineethanesulfonic acid], the “Buffer Range” value [3] is listed as 6.8-8.2.

In the case of `O=C(O)CNC(CO)(CO)CO` [Tricine, N-tris(hydroxymethyl)methylglycine], the “Buffer Range” value [3] is listed as 7.4-8.8.

In the case of `O=S(=O)(O)CCCN1CCOCC1` [MOPS, 3-(N-morpholino)propanesulfonic acid], the “Buffer Range” value [3] is listed as 6.5-7.9.

In the case of `NC(CO)(CO)CO` [Tris, tris(hydroxymethyl)methylamine], the “Buffer Range” value [3] is listed as 7.5-9.0.

In the case of `CCCCC(CCCC)(CC(=O)NC(CO[C@H]1OC(CO)[C@H](O)C(O)[C@H]1O)CO[C@H]1OC(CO)[C@H](O)C(O)[C@H]1O)c1ccccc1` (stereo partly drawn) [TPA2], the “critical micelle concentration (CMC)” value [4] is reported as 3.6 mM, the “CMC” value [4] is reported as 3.6 mM and the “CMC (%)” value [4] is reported as 0.24%. For the same compound, the “875 nm/760 nm absorption ratio” value ([1]; solubilized protein from R. capsulatus membranes) was ~8, the “extraction of LHI-RC superassembly” value [1] was “intact LHI-RC superassembly in high yield” and the “stability of solubilized LHI-RC superassembly” value (LHI-RC superassembly) was “remains stable for several days”.

With `CCCCCCCCCCCCC(=O)NCCO[C@@H]1O[C@H](CO)[C@@H](O[C@H]2O[C@H](CO)[C@@H](O)[C@H](O)[C@H]2O)[C@H](O)[C@H]1O` [MPA4] the “Level (S/P solubilization rank and detergent strength)” value [1] was “insoluble”, the “solubility in aqueous buffer” value [2] was “not soluble in aqueous buffer” and the solubility in water [2] was “not soluble in water without other additives”.
